In assay [1] the target is T1, Protein kinase C iota type (Homo sapiens, UniProt P41743).
T1 sequence (P41743 whole entry): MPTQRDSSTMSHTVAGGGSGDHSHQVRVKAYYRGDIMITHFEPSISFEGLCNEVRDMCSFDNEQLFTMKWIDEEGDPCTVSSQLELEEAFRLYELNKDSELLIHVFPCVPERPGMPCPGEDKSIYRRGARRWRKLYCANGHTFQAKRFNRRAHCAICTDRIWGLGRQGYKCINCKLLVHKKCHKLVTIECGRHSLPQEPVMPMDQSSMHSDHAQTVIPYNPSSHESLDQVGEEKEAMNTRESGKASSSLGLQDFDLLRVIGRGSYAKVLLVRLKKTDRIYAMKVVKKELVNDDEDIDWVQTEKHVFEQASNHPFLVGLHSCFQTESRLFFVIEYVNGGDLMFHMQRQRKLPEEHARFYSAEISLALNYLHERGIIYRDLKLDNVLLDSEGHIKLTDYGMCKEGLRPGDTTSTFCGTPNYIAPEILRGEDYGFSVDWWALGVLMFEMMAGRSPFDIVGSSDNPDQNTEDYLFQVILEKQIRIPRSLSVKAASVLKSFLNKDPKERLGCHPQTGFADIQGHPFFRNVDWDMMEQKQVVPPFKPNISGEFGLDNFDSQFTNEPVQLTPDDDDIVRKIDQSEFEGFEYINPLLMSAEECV
Nature of the assay: Inhibition of recombinant full-length human PKC-iota expressed in Sf21 cells using FAM-PKCs pseudopeptide derived peptide substrate and 150 uM ATP by fluorescence polarization based IMAP assay.

In assay [2] the target is T1, Protein kinase C iota type. Nature of the assay: Inhibition of recombinant human PKC-iota kinase domain expressed in Sf21 cells using FAM-PKCs pseudopeptide derived peptide substrate and 25 uM ATP by fluorescence polarization based IMAP assay. In general terms: In fluorescence polarisation assays a small probe gives low polarisation when free and higher when bound to something large.

In the case of `F[C@H]1NCC[C@H]1Nc1nc(-c2ccncc2)nc2ccsc12`, the IC50 (as a rule, the concentration at which inhibition is half-maximal) in assay [1] was at least 10000 nM.

`N[C@H](CNc1nc(-c2ccncc2)nc2sc3c(c12)CCCC3)Cc1ccccc1O`: the IC50 in assay [1] is below 100 nM.

Regarding `Cc1csc2nc(-c3ccncc3)nc(N3CCNCC3)c12`, the IC50 in assay [2] is below 100 nM.

Take `CC(C)(C)OC(=O)N1CCc2c(sc3nc(-c4ccncc4)nc(NCCN)c23)C1`: the IC50 in assay [1] was at least 10000 nM.

With `C[C@@H](F)C#Cc1csc2c(NC[C@@H](N)Cc3ccccc3)nc(-c3ccncc3)nc12`, the IC50 in assay [1] was below 100 nM.

Take `C[C@H](N)CNc1nc(-c2ccncc2)nc2sc3c(c12)CCCC3`: in assay [2], the IC50 was below 100 nM.

As for `C[C@H](O)C#Cc1csc2c(N[C@@H]3CCNC3)nc(-c3ccncc3)nc12`, the IC50 in assay [1] was below 100 nM.

Regarding `CNC(=O)c1csc2c(NC[C@@H](N)Cc3ccccc3)nc(-c3ccncc3)nc12`, the IC50 in assay [1] was below 100 nM.

As for `CCc1cc(-c2csc3c(NC[C@@H](N)Cc4ccccc4)nc(-c4ccncc4)nc23)[nH]n1`, the half-maximal inhibitory concentration (IC50) in assay [1] is below 100 nM.

On to `N[C@H](CNc1nc(-c2ccncc2)nc2c(C#Cc3cc[nH]n3)csc12)Cc1ccccc1`, for which the IC50 in assay [1] was below 100 nM.

Consider `N[C@H](CNc1nc(-c2ccncc2)nc2c(Nc3ccon3)csc12)Cc1ccccc1`, for which the IC50 in assay [1] was below 100 nM.

On to `N[C@H](CNc1nc(-c2ccncc2)nc2c(Nc3ccccn3)csc12)Cc1ccccc1`, for which the IC50 in assay [1] was below 100 nM.

Regarding `N[C@H](CNc1nc(-c2ccncc2)nc2c(C#CC3(O)CCCC3)csc12)Cc1ccccc1`, in assay [1], the IC50 was below 100 nM.

Turning to `N[C@H](CNc1nc(-c2ccncc2)nc2c(C#CCF)csc12)Cc1ccccc1`, the IC50 in assay [1] is below 100 nM.

For the compound `Brc1csc2c(N[C@@H]3CCNC3)nc(-c3ccncc3)nc12`, in assay [1], the IC50 was below 100 nM.

With `CC(O)CC#Cc1csc2c(NC[C@@H](N)Cc3ccccc3)nc(-c3ccncc3)nc12` (stereo partly drawn), the IC50 in assay [1] was below 100 nM.

As for `N[C@H](CNc1nc(-c2ccncc2F)nc2c(C#CCO)csc12)Cc1ccccc1`, the IC50 in assay [1] was below 100 nM.

Take `C[C@@H](O)C#Cc1csc2c(NC[C@@H](N)Cc3ccccc3)nc(-c3ccncc3)nc12`: in assay [1], the IC50 is below 100 nM.

As for `N[C@H](CNc1nc(-c2ccncc2)nc2c(C#CCCO)csc12)Cc1ccccc1`, the IC50 in assay [1] was below 100 nM.

For the compound `Cc1ccc(CN2CCN(c3nc(-c4ccncc4)nc4sc5c(c34)CCCC5)CC2)cc1`, the half-maximal inhibitory concentration (IC50) in assay [2] was at least 10000 nM.

`N[C@H](CNc1nc(-c2ccncc2)nc2c(-c3ccccc3Cl)c(C(F)(F)F)sc12)Cc1ccccc1`: the IC50 in assay [1] was at least 10000 nM.

As to `CC#Cc1csc2c(NC[C@@H](N)Cc3ccccc3)nc(-c3ccncc3)nc12`, the IC50 in assay [1] was below 100 nM.

Regarding `Cc1sc2c(NC[C@@H](N)Cc3ccccc3)nc(-c3ccncc3)nc2c1Br`, the IC50 in assay [1] is below 100 nM.

With `N[C@H](CNc1nc(-c2ccncc2F)nc2c(-c3cc[nH]n3)csc12)Cc1ccccc1`, in assay [1], the IC50 is below 100 nM.

Turning to `CC(C)S(=O)(=O)c1cccc(Nc2cc(-c3nc(N[C@@H]4CCNC4)c4sccc4n3)ccn2)c1`, in assay [1], the IC50 was at least 1000 nM.

`Cc1sc2c(NC[C@@H](N)Cc3ccccc3)nc(-c3ccncc3)nc2c1C#CC(C)(C)O`: the IC50 in assay [1] was below 100 nM.

For `N[C@H](CNc1nc(-c2ccncc2)nc2c(Cl)csc12)Cc1ccccc1`, in assay [1], the half-maximal inhibitory concentration (IC50) is below 100 nM.

Consider `N[C@H](CNc1nc(-c2ccncc2F)nc2c(Br)csc12)Cc1ccccc1`, for which the IC50 in assay [1] is below 100 nM.

Regarding `N[C@H](CNc1nc(-c2ccncc2)nc2c(C#CC3(O)CCC3)csc12)Cc1ccccc1`, the IC50 in assay [1] was below 100 nM.

For `C/C=C\c1csc2c(NC[C@@H](N)Cc3ccccc3)nc(-c3ccncc3)nc12`, the IC50 in assay [1] is below 100 nM.

In the case of `N[C@H](CNc1nc(-c2ccncc2)nc2c(-c3ccn[nH]3)csc12)Cc1ccccc1`, the IC50 in assay [1] was below 100 nM.

Turning to `CC(C)(O)C#Cc1csc2c(NC[C@@H](N)Cc3ccccc3)nc(-c3ccncc3)nc12`, the IC50 in assay [1] is below 100 nM.

As for `C[C@H](O)C#Cc1csc2c(NC[C@@H](N)Cc3ccccc3)nc(-c3ccncc3)nc12`, the IC50 in assay [1] was below 100 nM.

Regarding `COCC#Cc1csc2c(NC[C@@H](N)Cc3ccccc3)nc(-c3ccncc3)nc12`, the IC50 in assay [1] is below 100 nM.

With `N[C@H](CNc1nc(-c2ccncc2)nc2c(C#CC3(O)CC3)csc12)Cc1ccccc1`, the IC50 in assay [1] is below 100 nM.

As for `CC[C@H](O)C#Cc1csc2c(NC[C@@H](N)Cc3ccccc3)nc(-c3ccncc3)nc12`, the IC50 in assay [1] was below 100 nM.

Turning to `Cc1csc2c(NC[C@@H](N)Cc3ccccc3)nc(-c3ccncc3)nc12`, in assay [2], the IC50 was below 100 nM.

For the compound `CC(O)C#Cc1csc2c(NC[C@@H](N)Cc3ccccc3)nc(-c3ccncc3)nc12` (stereo partly drawn), the IC50 in assay [1] is below 100 nM.

As for `C#Cc1csc2c(NC[C@@H](N)Cc3ccccc3)nc(-c3ccncc3)nc12`, the IC50 in assay [1] is below 100 nM.

With `N[C@H](CNc1nc(-c2ccncc2)nc2c(Br)csc12)Cc1ccccc1`, in assay [1], the IC50 is below 100 nM.

Regarding `N[C@H](CNc1nc(-c2ccncc2)nc2c(-c3cn[nH]n3)csc12)Cc1ccccc1`, the IC50 in assay [1] is below 100 nM.

Take `Cc1sc2c(NC[C@@H](N)Cc3ccccc3)nc(-c3ccncc3)nc2c1-c1ccn[nH]1`: the IC50 in assay [1] is below 100 nM.

As to `N[C@H](CNc1nc(-c2ccncc2)nc2c(/C=C/C(=O)O)csc12)Cc1ccccc1`, the IC50 in assay [1] is at most 1000 nM.

Take `N[C@H](CNc1nc(-c2ccncc2)nc2c(NC(=O)C3CCCC3)csc12)Cc1ccccc1`: the IC50 in assay [1] is at least 10000 nM.

With `C=Cc1csc2c(NC[C@@H](N)Cc3ccccc3)nc(-c3ccncc3)nc12`, the IC50 in assay [1] was below 100 nM.

On to `N[C@H](CNc1nc(-c2ccncc2)nc2c(C#CCO)csc12)Cc1ccccc1`, for which the IC50 in assay [1] is below 100 nM.

For `Cc1cc(-c2csc3c(NC[C@@H](N)Cc4ccccc4)nc(-c4ccncc4)nc23)n[nH]1`, the 50% inhibitory concentration (IC50) in assay [1] is below 100 nM.

In the case of `CCC[C@@H](O)[C@H](O)C#Cc1csc2c(NC[C@@H](N)Cc3ccccc3)nc(-c3ccncc3)nc12`, the IC50 in assay [1] was at least 1000 nM.

With `N#Cc1csc2c(NC[C@@H](N)Cc3ccccc3)nc(-c3ccncc3)nc12`, in assay [1], the IC50 is below 100 nM.

For the compound `c1cc(-c2nc(N[C@@H]3CCNC3)c3scc(-c4ccn[nH]4)c3n2)ccn1`, the IC50 in assay [1] was below 100 nM.

As for `N[C@H](CNc1nc(-c2ccncc2)nc2c(C3CC3)csc12)Cc1ccccc1`, the IC50 in assay [1] was below 100 nM.

`N[C@H](CNc1nc(-c2ccncc2)nc2c(/C=C/C3CC3)csc12)Cc1ccccc1`: the IC50 in assay [1] is below 100 nM.

In the case of `N[C@H](CNc1nc(-c2ccncc2)nc2c(C#CC3CC3)csc12)Cc1ccccc1`, the IC50 in assay [1] was below 100 nM.
